Assay results taken from the NIST ThermoML archive (doi:10.1016/j.jct.2009.11.010).

What was measured:
[1] = molar heat capacity at saturation pressure; details: Liquid
[2] = Liquid, Vibrating tube method

c1ccc2nc3ccccc3cc2c1 [acridine]
Details | mass density [kg/m3] | molar heat capacity [J/K/mol]
[1], 460 K | – | 343.6
[1], 480 K | – | 352.2
[1], 500 K | – | 360.6
[1], 520 K | – | 368.7
[1], 540 K | – | 376.4
[1], 560 K | – | 383.8
[1], 580 K | – | 390.8
[1], 600 K | – | 397.3
[2], 423.15 K | 1064.9 | –
[2], 448.15 K | 1043.7 | –
[2], 473.15 K | 1023.9 | –
[2], 498.15 K | 1005.1 | –
[2], 523.15 K | 985.4 | –
[2], 548.15 K | 964.8 | –
